How the values were obtained:
[1] = Cytotoxicity against human NCI-H358M cells incubated for 72 hrs by MTT assay; format: functional, cell-based
OVCAR-8 = assay: Cytotoxicity against human OVCAR-8 cells incubated for 72 hrs by MTT assay; format: functional, cell-based; details: OVCAR-8, 72 h
PC-3M = assay: Cytotoxicity against human PC-3M cells incubated for 72 hrs by MTT assay; format: functional, cell-based
[2] = Antiproliferative activity against human A875 cells assessed as inhibition of cell growth incubated for 24 hrs by MTT reagent based microplate reader assay; format: functional; details: A875, 24 h
AGS = assay: Cytotoxicity against human AGS cells incubated for 72 hrs by MTT assay; format: functional, cell-based
SK-MES-1 = assay: Cytotoxicity against human SK-MES-1 cells incubated for 72 hrs by MTT assay; format: functional, cell-based; details: SK-MES-1, 72 h
J82 = assay: Cytotoxicity against human J82 cells incubated for 72 hrs by MTT assay; format: functional, cell-based; details: J82, 72 h
HL-60 [3] = assay: Cytotoxicity against human HL-60 cells incubated for 72 hrs by MTT reagent based spectrophotometric analysis; format: functional, cell-based; details: HL-60, 72 h
A549 = assay: Cytotoxicity against human A549 cells incubated for 72 hrs by MTT reagent based spectrophotometric analysis; format: functional, cell-based; details: A549, 72 h
A2780 = assay: Cytotoxicity against human A2780 cells incubated for 72 hrs by MTT reagent based spectrophotometric analysis; format: functional, cell-based; details: A2780, 72 h
PC-3 = assay: Cytotoxicity against human PC-3 cells incubated for 72 hrs by MTT reagent based spectrophotometric analysis; format: functional, cell-based; details: PC-3, 72 h
HT-29 = assay: Cytotoxicity against human HT-29 cells assessed as inhibition of cell growth incubated upto 72 hrs by MTT assay; format: functional, cell-based; details: HT-29, 72 h
SW480 = assay: Cytotoxicity against human SW480 cells assessed as inhibition of cell growth incubated upto 72 hrs by MTT assay; format: functional, cell-based; details: SW480, 72 h
HepG2 [4] = assay: Cytotoxicity against human HepG2 cells assessed as inhibition of cell growth incubated upto 72 hrs by MTT assay; format: functional, cell-based; details: HepG2, 72 h
HL-60 [5] = assay: Cytotoxicity against human HL-60 cells assessed as inhibition of cell growth incubated upto 72 hrs by MTT assay; format: functional, cell-based; details: HL-60, 72 h
MCF7 [6] = assay: Cytotoxicity against human MCF7 cells assessed as inhibition of cell growth incubated upto 72 hrs by MTT assay; format: functional, cell-based; details: MCF7, 72 h
RPMI-8226 = assay: Cytotoxicity against human RPMI-8226 cells assessed as inhibition of cell growth incubated for 72 hrs by MTT reagent based colorimetric assay; format: functional; details: RPMI-8226, 72 h
MCF7 [7] = assay: Cytotoxicity against human MCF7 cells assessed as inhibition of cell growth incubated for 72 hrs by MTT reagent based colorimetric assay; format: functional; details: MCF7, 72 h
HepG2 [8] = assay: Cytotoxicity against human HepG2 cells assessed as inhibition of cell growth incubated for 72 hrs by MTT reagent based colorimetric assay; format: functional; details: HepG2, 72 h
HL-60 [9] = assay: Cytotoxicity against human HL-60 cells assessed as reduction in cell growth incubated for 48 hrs by MTT assay; format: functional, cell-based; details: HL-60, 48 h
[10] = system: KATO III stomach cancer cell line; assay: Antiproliferative activity against human KATO III stomach cancer cell line assessed as inhibition of cell growth incubated for 72 hrs by MTS assay; format: functional, cell-based
MCF7 [11] = assay: Antiproliferative activity against human MCF7 cells assessed as inhibition of cell growth incubated for 72 hrs by MTS assay; format: functional, cell-based; details: MCF7, 72 h
DU-145 = assay: Cytotoxicity against human DU-145 cells incubated for 48 hrs by MTT assay; format: functional, cell-based; details: DU-145, 48 h
MCF7 [12] = assay: Cytotoxicity against human MCF7 cells incubated for 48 hrs by MTT assay; format: functional, cell-based; details: MCF7, 48 h
MCF7 [13] = assay: Cytotoxicity against human MCF7 cells incubated for 72 hrs; format: functional, cell-based; details: MCF7, 72 h
HeLa = assay: Cytotoxicity against human HeLa cells incubated for 48 hrs by MTT reagent based spectrophotometric analysis; format: functional, cell-based
Jurkat = assay: Cytotoxicity against human Jurkat cells incubated for 48 hrs by MTT reagent based spectrophotometric analysis; format: functional, cell-based
[14] = Antiproliferative activity against human TT cells assessed as inhibition of cell growth incubated for 72 hrs by WST-1 assay; format: functional, cell-based
U-937 = assay: Cytotoxicity against human U-937 cells assessed as reduction in cell viability incubated for 72 hrs by resazurin assay; format: functional, cell-based; details: U-937, 72 h

CC1(O)CCC(C#CC2=C(C#CC3CCC(C)(O)CC3)C(=O)c3ccccc3C2=O)CC1 (centres undefined)
IC50 [1]: 2.98 µM
IC50 (OVCAR-8): 2.28 µM
IC50 (PC-3M): 4.28 µM

CC(C)=CC[C@@H](OC(=O)CCc1cc2ccccc2[nH]1)C1=CC(=O)c2c(O)ccc(O)c2C1=O
IC50 [2]: 0.005 µM

CCCCCC(=O)C1=C(/C(C(=O)OC)=C(\C)NC(Cc2c[nH]c3ccccc23)C(=O)OC)C(=O)c2ccccc2C1=O (centres undefined)
IC50 (AGS): 9.3 µM
IC50 (SK-MES-1): 5.5 µM
IC50 (J82): 4.5 µM

O=C1C=C(C(O)C[N+](=O)[O-])C(=O)c2c(O)ccc(O)c21 (centres undefined)
IC50 (HL-60 [3]): 0.14 µM
IC50 (A549): 1.05 µM
IC50 (A2780): 0.11 µM
IC50 (PC-3): 0.09 µM

CC(C)=CCC/C(C)=C/CC/C(C)=C/CC1=C(O)C(=O)c2ccccc2C1=O
IC50 (HT-29): 1.99 µM
IC50 (SW480): 2.02 µM
IC50 (HepG2 [4]): 14 µM
IC50 (HL-60 [5]): 5.41 µM
IC50 (MCF7 [6]): 47 µM

C[P+](C1=C([O-])C(=O)c2c(F)c(F)c(F)c(F)c2C1=O)(c1ccccc1)c1cc(F)cc(F)c1 (centres undefined)
IC50 (RPMI-8226): 6.4 µM
IC50 (MCF7 [7]): 4.6 µM
IC50 (HepG2 [8]): 7.1 µM

CC(=O)N[C@H]1[C@H](OC2=C(CC=C(C)C)C(=O)c3ccccc3C2=O)O[C@H](COC(C)=O)[C@@H](OC(C)=O)[C@@H]1OC(C)=O
IC50 (HL-60 [9]): 5.3 µM

CC(C)=CCCc1ccc2c(c1)C(=O)c1c(cnn1CCO)C2=O
IC50 [10]: 25.5 µM
IC50 (MCF7 [11]): 27.5 µM

COc1cc(N)cc(OC)c1C1=C(C(C)=O)C(=O)c2ccccc2C1=O
IC50 (DU-145): 12.3 µM
IC50 (MCF7 [12]): 21.2 µM

CCC/C=C/C(=O)C1=C(OC)C(=O)c2cc(OC)c(OC)cc2C1=O
IC50 (MCF7 [13]): 15 µM

COc1ccc(NC2=CC(=O)c3cc4c(cc3C2=O)CCCC4(C)C)cc1
IC50 (HeLa): 0.01 µM
IC50 (Jurkat): 1.4 µM

CC(C)=CC[C@@H](OC(=O)C=C(C)C)C1=CC(=O)c2c(O)ccc(O)c2C1=O [DIMETHYLACRYLSHIKONIN]
IC50 [14]: 1.2 µM

CC(C)=CC[C@@H](OC(=O)C(C)C)C1=CC(=O)c2c(O)ccc(O)c2C1=O [ISOBUTYLSHIKONIN]
IC50 (U-937): 0.05 µM
